Literature values as cited in US9090495B2, “Slow release tablet composition for treating industrial water systems” (AMSA, Inc., priority 2009, dated 2015).

Key:
[1] = alkaline pH, such as pH~9, industrial water system conditions
[2] = typical cooling tower system; composition of U.S. Pat. No. 4,816,061

Row | SMILES | Time to degradation [1] | Duration of effectiveness of a typical dose [2] [days]
1 | N#CC(Br)(Br)C(N)=O [DBNPA, 2,2-dibromo-3-nitrilopropionamide] | a few minutes | 
2 | CCCCCCCCCCSCCN [n-decylthioethylamine] |  | 1 to 1.5
